# According to paper PMC3222737 (Biochemistry, 2011):
# Where “and” joins values, the source holds several entries; their conditions need not be identical. Equal entries are not always repeated. Where two headings read alike, the source gives them in different places.
# Columns and labels:
# MTAP [1] = target: T1, MTAP (Homo sapiens, UniProt Q13126); test: Isothermal titration calorimetry of ligand binding to human MTAP; conditions: for ΔG: calculated from Ki; for −TΔS: from ΔG=ΔH−TΔS
# T1 sequence (Q13126 1-283): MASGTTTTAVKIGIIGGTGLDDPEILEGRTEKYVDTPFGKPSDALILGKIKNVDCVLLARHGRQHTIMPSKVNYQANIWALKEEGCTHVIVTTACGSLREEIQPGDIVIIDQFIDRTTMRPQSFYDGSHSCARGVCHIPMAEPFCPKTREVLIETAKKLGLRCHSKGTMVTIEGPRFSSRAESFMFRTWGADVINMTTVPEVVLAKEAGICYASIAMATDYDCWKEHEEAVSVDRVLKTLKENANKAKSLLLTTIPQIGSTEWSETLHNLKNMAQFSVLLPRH
# FaDu tumors = conditions: mouse model; cited from earlier work
# MTAP [2] = target: T1, MTAP; conditions: cited from earlier work; for Ki: human MTAP
# [3] = in vivo; cited from earlier work
# [4] = system: human lung cancer cell lines; conditions: mouse xenografts; cited from earlier work
# MTAP [5] = target: T1, MTAP; test: Analytical ultracentrifugation sedimentation velocity of MTAP complexes; conditions: for S(20,w) (normalized): MTAP 134 μM + inhibitor 400 μM, normalized for mass of bound ligands; for S(20,w) relative change: versus apo MTAP
# FaDu = FaDu cells; cited from earlier work
# Cal27 = Cal27 cells; cited from earlier work
# [6] = second generation inhibitors, single set of identical sites
# [7] = second generation inhibitors, identical sites
# [8] = first generation inhibitors, major binding sites (first two sites)
# [9] = first generation inhibitors, major binding sites
# [10] = first generation inhibitors, third site
smiles,measurement,setting,value
"Nc1ncnc2[nH]cnc12 [Adenine, reference compound]",Kd,"MTAP [1]; Kd, adenine, 1st site, three sequential binding sites model, derived from ITC data fitting",3000 ± 1000 nM
same,ΔH,"MTAP [1]; adenine, 1st site",-0.013 ± 0.84 kJ/mol
same,n (number of sites),"MTAP [1]; adenine, 1st site, sequential model",1
same,ΔG,"MTAP [1]; adenine, 1st site",-31.8 ± 0.84 kJ/mol
same,−TΔS,"MTAP [1]; adenine, 1st site",-31.8 ± 1.3 kJ/mol
same,ΔH,"MTAP [1]; adenine, 2nd site",10 ± 0.84 kJ/mol
same,n (number of sites),"MTAP [1]; adenine, 2nd site, sequential model",1
same,ΔG,"MTAP [1]; adenine, 2nd site",-32.2 ± 0.84 kJ/mol
same,−TΔS,"MTAP [1]; adenine, 2nd site",-42.3 ± 1.3 kJ/mol
same,ΔH,"MTAP [1]; adenine, 3rd site",-10.9 ± 3.3 kJ/mol
same,n (number of sites),"MTAP [1]; adenine, 3rd site, sequential model",1
same,ΔG,"MTAP [1]; adenine, 3rd site",-23.4 ± 2.1 kJ/mol
same,−TΔS,"MTAP [1]; adenine, 3rd site",-12.6 ± 3.8 kJ/mol
same,Entropy (−TΔS) share of the binding energy,"MTAP [1]; adenine, third site",54%
CSC[C@H]1CN(Cc2c[nH]c3c(N)ncnc23)C[C@@H]1O [MT-DADMe-ImmA],tumor growth,FaDu tumors,prevents the growth of FaDu tumors
same,Ki,MTAP [2]; read-out: Ki (dissociation constant by inhibition kinetics),0.09 nM
same,Kd,MTAP [2]; [6],0.09 ± 0.01 nM
same,systemic toxicity,[3],low systemic toxicity
same,tumor growth and metastases,[4],inhibits the tumor growth and metastases
same,"S(20,w) (normalized)",MTAP [5],5.904 ± 0.016
same,"S(20,w) relative change",MTAP [5],0.79 ± 0.05%
same,ΔH,MTAP [1]; [7],6.28 ± 0.42 kJ/mol
same,ΔG,MTAP [1]; [7],-57.3 kJ/mol and -57.3 ± 0.42 kJ/mol
same,−TΔS,MTAP [1]; [7],-63.6 kJ/mol and -63.6 ± 0.42 kJ/mol
same,n (number of sites),MTAP [1]; [6],3
same,apoptosis,FaDu,induces apoptosis
same,apoptosis,Cal27,induces apoptosis
CSCC1NC(c2c[nH]c3c(N)ncnc23)[C@@H](O)[C@H]1O (some centres unmarked) [MT-ImmA],Kd,MTAP [2]; [8],1 ± 0.1 nM
same,Ki,MTAP [2],1 nM
same,n (number of sites),MTAP [1]; [9],2.42 ± 0.04
same,ΔH,MTAP [1]; [9],0.84 kJ/mol and 1 ± 0.17 kJ/mol
same,ΔG,MTAP [1]; [9],-51.5 kJ/mol and -51.5 ± 0.42 kJ/mol
same,−TΔS,MTAP [1]; [9],-52.3 kJ/mol and -52.3 ± 0.42 kJ/mol
same,n (number of sites),MTAP [1]; [10],0.58 ± 0.09
same,ΔH,MTAP [1]; [10],11.3 ± 1.7 kJ/mol
same,ΔG,MTAP [1]; [10],-35.1 ± 1.3 kJ/mol
same,−TΔS,MTAP [1]; [10],-46.4 ± 2.1 kJ/mol
CCCSC[C@H]1N[C@@H](c2c[nH]c3c(N)ncnc23)[C@H](O)[C@@H]1O [nPrT-ImmA],Kd,MTAP [2]; [8],0.214 ± 0.01 nM
same,n (number of sites),MTAP [1]; [9],2.13 ± 0.04
same,ΔH,MTAP [1]; [9],0.84 kJ/mol and 1 ± 0.13 kJ/mol
same,ΔG,MTAP [1]; [9],-55.2 kJ/mol and -55.2 ± 0.13 kJ/mol
same,−TΔS,MTAP [1]; [9],-56.1 kJ/mol and -56.1 ± 0.42 kJ/mol
same,n (number of sites),MTAP [1]; [10],0.9 ± 0.1
same,ΔH,MTAP [1]; [10],4.6 ± 0.84 kJ/mol
same,ΔG,MTAP [1]; [10],-34.3 ± 1.7 kJ/mol
same,−TΔS,MTAP [1]; [10],-38.9 ± 1.7 kJ/mol
Nc1ncnc2c(CN3CC(CSc4ccc(Cl)cc4)[C@H](O)C3)c[nH]c12 (some centres unmarked) [p-Cl-PhT-DADMe-ImmA],Kd,MTAP [2]; [6],0.01 ± 0.005 nM
same,"S(20,w) (normalized)",MTAP [5],6.012 ± 0.067
same,"S(20,w) relative change",MTAP [5],2.63% and 2.63 ± 0.12%
same,ΔH,MTAP [1]; [7],10.9 ± 0.42 kJ/mol
same,ΔG,MTAP [1]; [7],-62.8 kJ/mol and -62.8 ± 1.3 kJ/mol
same,−TΔS,MTAP [1]; [7],-73.6 kJ/mol and -73.6 ± 1.3 kJ/mol
same,n (number of sites),MTAP [1]; [6],3
